Data: the supplement of paper PMC10307832

Tests used:
Assay in all cases: relative viability (nuclei count vs DMSO), 5 days (fraction); higher = more cells survive
[1] = tested on: NCI-H1915
Outline: (§1)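 Relative viability divides the nuclei count in treated wells by that in vehicle wells. Lung cancer cell lines were seeded in 1536-well plates, dosed by pin tool the next day, and fixed and stained after 5 days in one step with final 0.05% Triton X-100, 1% formaldehyde and 1 ug/ml Hoechst. Dosing was a single drug or a fixed anchor-drug dose plus five library-drug doses (not always all listed) in √10 steps, and values are medians of duplicate plates imaged at 4×.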

[2] = tested on: LC-2-ad
Outline: as §1

[3] = tested on: HCC-15
Outline: as §1

[4] = tested on: NCI-H1993
Outline: as §1

[5] = tested on: NCI-H2023
Outline: as §1

[6] = tested on: NCI-H2085
Outline: as §1

[7] = tested on: COR-L23
Outline: as §1

[8] = tested on: NCI-H650
Outline: as §1

[9] = tested on: NCI-H1651
Outline: as §1

[10] = tested on: UMC-11
Outline: as §1

[11] = tested on: NCI-H2126
Outline: as §1

[12] = tested on: ABC-1
Outline: as §1

[13] = tested on: NCI-H838
Outline: as §1

[14] = tested on: NCI-H358
Outline: as §1

[15] = tested on: PC-14
Outline: as §1

[16] = tested on: NCI-H2342
Outline: as §1

[17] = tested on: LU99A
Outline: as §1

[18] = tested on: NCI-H2347
Outline: as §1

[19] = tested on: EPLC-272H
Outline: as §1

[20] = tested on: NCI-H1355
Outline: as §1

[21] = tested on: SW 1573
Outline: as §1

[22] = tested on: HARA
Outline: as §1

`C=C1C(=O)O[C@@H](CCCCCCCC)[C@@H]1C(=O)O` [C-75] + CCNC(=O)c1noc(-c2cc(C(C)C)c(O)cc2O)c1-c1ccc(CN2CCOCC2)cc1 [Luminespib] (partner 0.01 µM) was tested, and the relative viability ([1]; first compound 0.08 µM) was 0.694, the relative viability ([1]; first compound 0.253 µM) was 0.768 and the relative viability ([1]; first compound 0.8 µM) was 0.798. It also gave a relative viability ([1]; first compound 2.53 µM) of 0.717, a relative viability ([1]; first compound 8 µM) of 0.677 and a relative viability ([2]; first compound 0.08 µM) of 1.06. For the same molecule, the relative viability ([2]; first compound 0.253 µM) was 0.801, the relative viability ([2]; first compound 0.8 µM) was 0.95 and the relative viability ([2]; first compound 2.53 µM) was 0.797. The relative viability ([2]; first compound 8 µM) was 0.91, the relative viability ([3]; first compound 0.08 µM) was 0.303 and the relative viability ([3]; first compound 0.253 µM) was 0.271. For the same molecule, the relative viability ([3]; first compound 0.8 µM) was 0.148, the relative viability ([3]; first compound 2.53 µM) was 0.345 and the relative viability ([3]; first compound 8 µM) was 0.196. For the same molecule, the relative viability ([4]; first compound 0.08 µM) was 0.988, the relative viability ([4]; first compound 0.253 µM) was 0.806 and the relative viability ([4]; first compound 0.8 µM) was 0.787. For the same molecule, the relative viability ([4]; first compound 2.53 µM) was 0.875, the relative viability ([4]; first compound 8 µM) was 0.83 and the relative viability ([5]; first compound 0.08 µM) was 0.746. The relative viability ([5]; first compound 0.253 µM) was 0.921, the relative viability ([5]; first compound 0.8 µM) was 0.706 and the relative viability ([5]; first compound 8 µM) was 0.696. For the same molecule, the relative viability ([6]; first compound 0.08 µM) was 0.427, the relative viability ([6]; first compound 0.253 µM) was 0.416 and the relative viability ([6]; first compound 0.8 µM) was 0.38. For the same molecule, the relative viability ([6]; first compound 2.53 µM) was 0.366, the relative viability ([6]; first compound 8 µM) was 0.417 and the relative viability ([7]; first compound 0.08 µM) was 0.63. The relative viability ([7]; first compound 0.253 µM) was 0.706, the relative viability ([7]; first compound 0.8 µM) was 0.682 and the relative viability ([7]; first compound 2.53 µM) was 0.66. It also gave a relative viability ([7]; first compound 8 µM) of 0.559, a relative viability ([8]; first compound 0.08 µM) of 0.685 and a relative viability ([8]; first compound 0.253 µM) of 0.737. For the same molecule, the relative viability ([8]; first compound 0.8 µM) was 0.818, the relative viability ([8]; first compound 2.53 µM) was 0.684 and the relative viability ([8]; first compound 8 µM) was 0.788. For the same molecule, the relative viability ([9]; first compound 0.08 µM) was 0.817, the relative viability ([9]; first compound 0.253 µM) was 0.939 and the relative viability ([9]; first compound 0.8 µM) was 0.829. The relative viability ([9]; first compound 2.53 µM) was 0.672, the relative viability ([9]; first compound 8 µM) was 0.934 and the relative viability ([10]; first compound 0.08 µM) was 0.992. It also gave a relative viability ([10]; first compound 0.253 µM) of 1.01, a relative viability ([10]; first compound 0.8 µM) of 1.03 and a relative viability ([10]; first compound 2.53 µM) of 0.712. For the same molecule, the relative viability ([10]; first compound 8 µM) was 0.742, the relative viability ([11]; first compound 0.08 µM) was 0.931 and the relative viability ([11]; first compound 0.253 µM) was 0.977. The relative viability ([11]; first compound 0.8 µM) was 0.804, the relative viability ([11]; first compound 2.53 µM) was 0.815 and the relative viability ([11]; first compound 8 µM) was 0.872. The relative viability ([12]; first compound 0.253 µM) was 0.389, the relative viability ([12]; first compound 0.8 µM) was 0.51 and the relative viability ([12]; first compound 2.53 µM) was 0.364. It also gave a relative viability ([12]; first compound 8 µM) of 0.378, a relative viability ([13]; first compound 0.08 µM) of 0.325 and a relative viability ([13]; first compound 0.8 µM) of 0.296. For the same molecule, the relative viability ([13]; first compound 2.53 µM) was 0.286, the relative viability ([13]; first compound 8 µM) was 0.238 and the relative viability ([14]; first compound 0.08 µM) was 0.338. For the same molecule, the relative viability ([14]; first compound 0.253 µM) was 0.247, the relative viability ([14]; first compound 0.8 µM) was 0.314 and the relative viability ([14]; first compound 2.53 µM) was 0.355. The relative viability ([14]; first compound 8 µM) was 0.224, the relative viability ([15]; first compound 0.08 µM) was 0.158 and the relative viability ([15]; first compound 0.253 µM) was 0.171. The relative viability ([15]; first compound 0.8 µM) was 0.151, the relative viability ([15]; first compound 2.53 µM) was 0.142 and the relative viability ([15]; first compound 8 µM) was 0.152. The relative viability ([16]; first compound 0.08 µM) was 0.798, the relative viability ([16]; first compound 0.253 µM) was 0.802 and the relative viability ([16]; first compound 0.8 µM) was 0.689. The relative viability ([16]; first compound 2.53 µM) was 0.743, the relative viability ([16]; first compound 8 µM) was 0.68 and the relative viability ([17]; first compound 0.08 µM) was 0.209. The relative viability ([17]; first compound 0.253 µM) was 0.297, the relative viability ([17]; first compound 0.8 µM) was 0.251 and the relative viability ([17]; first compound 2.53 µM) was 0.252. For the same molecule, the relative viability ([17]; first compound 8 µM) was 0.286, the relative viability ([18]; first compound 0.08 µM) was 0.409 and the relative viability ([18]; first compound 0.253 µM) was 0.474. For the same molecule, the relative viability ([18]; first compound 0.8 µM) was 0.294, the relative viability ([18]; first compound 8 µM) was 0.446 and the relative viability ([19]; first compound 0.08 µM) was 0.302. It also gave a relative viability ([19]; first compound 0.253 µM) of 0.308, a relative viability ([19]; first compound 0.8 µM) of 0.297 and a relative viability ([19]; first compound 2.53 µM) of 0.202. For the same molecule, the relative viability ([19]; first compound 8 µM) was 0.159, the relative viability ([20]; first compound 0.08 µM) was 0.621 and the relative viability ([20]; first compound 0.253 µM) was 0.668. It also gave a relative viability ([20]; first compound 0.8 µM) of 0.641, a relative viability ([20]; first compound 2.53 µM) of 0.394 and a relative viability ([20]; first compound 8 µM) of 0.615. It also gave a relative viability ([21]; first compound 0.08 µM) of 0.168, a relative viability ([21]; first compound 0.253 µM) of 0.254 and a relative viability ([21]; first compound 0.8 µM) of 0.207. For the same molecule, the relative viability ([21]; first compound 2.53 µM) was 0.216, the relative viability ([21]; first compound 8 µM) was 0.157 and the relative viability ([22]; first compound 0.08 µM) was 0.684. It also gave a relative viability ([22]; first compound 0.253 µM) of 0.684, a relative viability ([22]; first compound 0.8 µM) of 0.683 and a relative viability ([22]; first compound 2.53 µM) of 0.712. For the same molecule, the relative viability ([22]; first compound 8 µM) was 0.612.
